Experimental findings from patent US20090215693A1, “METHODS FOR INCREASING HYALURONIC ACID LEVELS AND IMPROVING MOISTURE RETENTION IN TISSUE” (priority 2008, published 2009) are described below.

Each structure is given as a SMILES string.

The test relates to Fibroblasts. Kind of test: Hyaluronic acid production by cultured fibroblasts (ELISA of culture medium). The class given is cell-based. Conditions: fibroblasts, 48 hours incubation, culture medium. Here is the method: Fibroblasts were seeded into individual wells of a 12-well plate in 1.0 ml of Fibroblast Growth Media (FGM) and incubated overnight at 37±2° C. and 5±1% CO2. On the following day the media was removed via aspiration to eliminate non-adherent cells and replaced with 1.0 ml of fresh FGM. Cells were grown until confluent, with a media change every 48 to 72 hours. Upon reaching confluency the cells were treated for 24 hours with DMEM supplemented with 1.5% FBS to eliminate growth factors from the normal culture media. After this 24-hour wash-out period the cells were treated with the indicated test materials (i.e., milk-derived products containing lactoferrin) at the specified concentrations dissolved in FGM with 1.5% FBS. Dibutyrl cAMP (DBcAMP) at 0.1 mM was used as a positive control. Untreated cells (negative control) received FGM with 1.5% FBS. The cells were incubated for 48 hours and at the end of the incubation period cell culture medium was collected and either stored frozen (−75° C.) or assayed immediately. All testing was done in triplicate.
A series of hyaluronic acid standards from 50 ng/ml to 3,200 ng/ml was prepared. […] After incubation, 50 μl of stop solution was added to each well and the absorbance was measured at 405 nm using a plate reader. Hyaluronic acid production was expressed as ng/ml and results are shown in Table 1 and the graph of FIG. 1.

In the case of `CCCC(=O)Nc1ncnc2c1ncn2[C@@H]1O[C@@H]2COP(=O)(O)O[C@H]2[C@H]1OC(=O)CCC` [DBcAMP, dibutyryl cyclic AMP], for the setting “amount applied 0.1 mM (positive control)”, the “HA Measured” value worked out at 416 ± 24 ng/mL.
Consider `CCCC(=O)[O-].[Na+]` [Sodium Butyrate], for which, under “amount applied 4 mM”, the “HA Measured” value came out at 139 ± 6 ng/mL.
